The results in this text go back to patent US20040132027A1, “Screening method for discovering auxiliary agents promoting endocytosis” (priority 2000, published 2004).

For the assay, the system named is yeast cells of the strain RPY10. The assay is described as follows: Transformation rate of yeast cells incubated with plasmid YEP24, with and without auxiliary agent. The class given is cell-based, Saccharomyces cerevisiae. Particulars: 5 μl chloroquine (100 mM solution) in 1 ml 1M saccharose pH 3.3, 10 μg YEP24, 24 h at 24° C., without chloroquine 0.8. Here is the method:
A test method for the quantification of the uptake and the endocytosis transfer was made as follows. […] cells from the logarithmic growth phase of the strain RPY10 (Matα, leu2-3, ura3, his4 ade6 (4×10^7−7×10^7 cells per ml) (Piper, R. C., Whitters, E. A., Stevens, T. H. (1994) Yeast VpsS4p is a Sec 1p-like protein required for the consumption of vacuolar targeted, post-Golgi vesicles. Eur. J. Cell Biol. 65:305-318) were incubated for 24 h with 10 μg of the purified plasmid YEP24 (see: D. Bothstein et al., 1979, Gene 8:17-24), with and without auxiliary agent. The structure of the plasmid is shown in FIG. 1.
Prior to the incubation, the cells were washed with the plasmid with at least twice the same volume of H2O and taken up in 1 ml 1M saccharose (pH 3.3, high concentrations of fermentable sugar), re-suspended with the pipette tip and brought in one 10 ml each falcon tube. […] Both were incubated for 5 min at room temperature.
Then 10 μg DNA from the same DNA preparation were pipetted thereto (in 3-100 μl). The falcon tubes were firmly closed and agitated for 24 hours in a water bath or breeding room at 24° C. (the optimum transformation rate is at 24° C.-28° C). […]
After the incubation, 200-500 cells per plate on YE plates (full medium) were plated out, and the colony-forming units (CFU) were determined. […] After 5 days at 24° C., the CFU were counted and tested by means of PCR. […]

For the compound `CCN(CC)CCCC(C)Nc1ccnc2cc(Cl)ccc12` (stereo not shown) [chloroquine], the transformation rate is 10.2 10^−8 transformants/CFU.
